Assay results reported in patent US5741785A, “Heterocyclic compounds, their preparation and use” (Novo Nordisk A/S, priority 1994, dated 1998).

How the values were obtained:
AMPA receptor = settings: reported in J. Med. Chem., 35, 3319-3324, 1992; cited from earlier work
AMPA type receptors = test: 3H-AMPA binding (Test 1), rat cerebral cortical membrane homogenate; settings: 5 nM 3H-AMPA, 0° C., 30 min, pH 7.1, Hill analysis; read-out: IC50 (50% displacement of the specific binding of 3H-AMPA), TEST 1
From the text: AMPA receptor binding may be studied by using ^3 H-AMPA as radioligand.
The pharmacological properties of the compounds of the present invention can be illustrated by determining their capability for displacing radioactively labelled 2-amino-3-hydroxy-5-methyl-4-isoxazolepropionic acid (AMPA) from the AMPA type receptors.
The displacement activity of the compounds may be shown by determining the IC50 value which represents the concentration (μM) which causes a displacement of 50% of the specific binding of ^3 H-AMPA.
^3 H-AMPA binding (Test 1)
500/μl of thawed rat cerebral cortical membrane homogenate in Tris-HCl (30 mM), CaCl2 (2.5 mM) and KSCN (100 mM) pH 7.1 were incubated at 0° C. for 30 min. with 25 μl ^3 H-AMPA (5 nM final concentration) and the test compound and buffer. Nonspecific binding was determined by incubation with L-glutamic acid (600/μM final concentration). The binding reaction was terminated by adding 5 ml of ice-cold buffer followed by filtration through Whatman GF/C glass fibre filters and 2×5 ml wash with ice-cold buffer. Bound radioactivity was measured by scintillation counting. IC50 was determined by Hill analysis of at least four concentrations of test compound.

[1] = tested on: quisqualic acid stimulated spreading depression in chicken retina; test: Spreading depression (Test 2), quisqualic acid stimulated, chicken retina; assay type: cell-based; settings: Gallus gallus, quisqualate 1 μg/ml, 15 min preincubation, 26° C., read-out: IC50 (50% maximal inhibition of quisqualic acid stimulated spreading depression), TEST 2
From the text: The influence of glutamic acid analogues on secondary effects of glutamate receptor interactions may be studied in vitro by using the phenomenon of spreading depression in chicken retina. Such experiments will provide information as to the efficacies (agonist/antagonist) of the test substances. This is in contrast to binding studies, which only provide information on the affinities of the compounds for the receptor.
The pharmacological properties of the compounds of the present invention can be illustrated by determining their capability for displacing radioactively labelled 2-amino-3-hydroxy-5-methyl-4-isoxazolepropionic acid (AMPA) from the AMPA type receptors. […]
The eyes were initially incubated in normal P.S.S. for 15-30 min. and then transferred to P.S.S. containing quisqualate (1 μg/ml). In this "stimulating solution" S.D.s start spontaneously usually from the edge of the retina, and can be easily observed by eye, The time taken for an S.D. to start in each eye was measured.
After a further 15 min. of incubation in normal P.S.S. the eyes were transferred to normal P.S.S, containing the test compound and incubated for 15 min. […] The time taken for an S.D. to start in each eye was measured again. The eyes were then placed back in normal P.S.S. and after 15 min. the time taken for S.D. to start was measured again, in order to assess the degree of recovery from any drug effects. […]

SMILES	affinity for the AMPA receptor (AMPA receptor)	IC50 (AMPA type receptors) [nM]	IC50 [1] [nM]
O=c1[nH]c2cc(Cl)c(Cl)cc2n2ccnc12 [7,8-dichloro-imidazo[1,2-a]quinoxaline-4(5H)-one]	reasonable affinity		
Cc1c(C(=O)O)nc2c(=O)[nH]c3cc(C(F)(F)F)ccc3n12 [Example 2, 2-Carboxy-1-methyl-7-trifluoromethylimidazo[1,2-a]quinoxalin-4(5H)-one]		450	1100
